# Columns and labels:
# [1] = test system: Influenza A virus; assay: microbe, parasite or virus in culture; settings: A/Berlin/55/08(H1N1), MDCK, 48 h
# [2] = test system: Influenza A virus; settings: mdck
smiles,measurement,setting,value
CCC(CC)O[C@@H]1C=C(C(=O)O)C[C@H](NC(C)=N)[C@H]1NC(C)=O,EC50,[1],4.82 µM
CC(=O)N[C@H]1[C@H]([C@H](O)[C@H](O)CO)OC(C(=O)O)=C[C@@H]1NC(=N)N [ZANAMIVIR],EC50,[2],1.22 µM
CCC(CC)O[C@@H]1C=C(C(=O)O)C[C@H](NC(=N)N)[C@H]1NC(C)=O,EC50,[1],3.31 µM
CCC(CC)O[C@@H]1C=C(C(=O)O)C[C@H](N)[C@H]1NC(C)=O [OSELTAMIVIR CARBOXYLATE],EC50,[1],> 100 µM
